Earlier results, collected in patent US20180014537A1, “NOVEL COMPOSITIONS AND METHODS FOR CONTROLLING SOIL BORNE PATHOGENS OF AGRICULTURAL CROPS” (ADJUVANTS UNLIMITED LLC, priority 2015, published 2018).

How the values were obtained:
[1] = soil drench
[2] = in vivo
Meloidogyne incognita = details: 3.2 uL per liter as a soil drench
tomato seedlings = details: at 24 hours, equivalent concentrations

CCCCCCCCC(=O)OC [PAME, pelargonic acid methyl ester]
concentration above which significant phytotoxicity occurred [1]: exceeded 4.8 uL per liter | less phytotoxic than the parent pelargonic acid [2]: 40 fold | control of Meloidogyne incognita (Meloidogyne incognita): good control | mortality of seedling (tomato seedlings): 100%

CCCCCC[C@@H](O)C/C=C\CCCCCCCC(=O)OC [ricinoleic acid methyl ester]
mortality of seedling (tomato seedlings): 0%
